Data on seven compounds can be found in patent publication US12636322B2, “Bacterial strain with high cellulolytic activity” (INSTITUT NATIONAL SUPERIEUR DES SCIENCES AGRONOMIQUES DE …, priority 2021, dated 2026).

This assay deals with F. succinogenes HC4. The experiment in a line: Phenotypic tests for antibiotic resistance. It counts as cell-based, Fibrobacter succinogenes. The note with it: liquid filter paper semi-synthetic medium, anaerobic, 48 hours at 38° C. As to the method:
Eight antibiotics were tested according to EFSA recommendations for Gram-negative bacteria (31). Before being added to the filter paper semi-synthetic medium, the antibiotics were sterilized by filtration (0.22 μm filters). 24-hours cultures of strain HC4 were inoculated into media containing each antibiotic. A positive control without antibiotics was inoculated from the same culture of strain HC4 and two cultures were prepared for each condition. After 48 hours of incubation at 38° C., the observation of filter paper degradation allowed estimating the bacterial growth. In case of no degradation, a sample of liquid was taken and frozen at −20° C. for further determination of succinate production.

Regarding `CC1(C)S[C@@H]2[C@H](NC(=O)[C@H](N)c3ccccc3)C(=O)N2[C@H]1C(=O)O` [Ampicillin], the “Concentrations to inhibit growth” value is recorded as 32 mg/L. In the case of `C[C@@H]1O[C@@H]1P(=O)(O)O` [Fosfomycin], the “Concentrations to inhibit growth” value came out at 512 mg/L. In the case of `NC[C@H]1O[C@H](O[C@H]2[C@H](O)[C@@H](O[C@H]3O[C@H](CO)[C@@H](O)[C@H](N)[C@H]3O)[C@H](N)C[C@@H]2N)[C@H](O)[C@@H](O)[C@@H]1O` [Kanamycin], the “Concentrations to inhibit growth” value is given as 8000 mg/L. As for `[H]/N=C(/N)N[C@H]1[C@H](O)[C@@H](O)[C@H](O[C@@H]2O[C@@H](C)[C@](O)(C=O)[C@H]2O[C@@H]2O[C@@H](CO)[C@H](O)[C@@H](O)[C@@H]2NC)[C@@H](N/C(N)=N\[H])[C@@H]1O` [Streptomycin], the “Concentrations to inhibit growth” value was found to be 2048 mg/L.

Turning to `CN(C)[C@@H]1C(=O)C(C(N)=O)=C(O)[C@@]2(O)C(=O)C3=C(O)c4c(O)cccc4[C@@](C)(O)[C@H]3C[C@@H]12` [Tetracyclin], the “Concentrations to inhibit growth” value stood at 1 mg/L.

As for Colistin, the “Concentrations to inhibit growth” value was determined as 64 mg/L.

On to Gentamicin, for which the “Concentrations to inhibit growth” value stood at 128 mg/L.
